These results are taken from ChEMBL document CHEMBL1139094, “The synthesis and structure-activity relationship studies of selective acetyl-CoA carboxylase inhibitors containing 4-(thiazol-5-yl)but-3-yn-2-amino motif: polar region modifications” (Bioorg Med Chem Lett, 2007).

Where only a bound is given, the exact number is not on record here.

Test [1] deals with Acetyl-CoA carboxylase 2 (Homo sapiens, UniProt O00763). The test is described as follows: Inhibition of ACC2.
For test [2], the target named is Acetyl-CoA carboxylase 1 (Homo sapiens, UniProt Q13085). Put plainly: Inhibition of ACC1.
The species named for test [3] is Homo sapiens. Put plainly: Selectivity for human ACC2 over ACC1.

The term IC50 denotes the midpoint of a concentration-inhibition curve. A higher IC50 goes with weaker potency in that assay.

Acetyl-CoA carboxylase 2, sequence (O00763 whole entry): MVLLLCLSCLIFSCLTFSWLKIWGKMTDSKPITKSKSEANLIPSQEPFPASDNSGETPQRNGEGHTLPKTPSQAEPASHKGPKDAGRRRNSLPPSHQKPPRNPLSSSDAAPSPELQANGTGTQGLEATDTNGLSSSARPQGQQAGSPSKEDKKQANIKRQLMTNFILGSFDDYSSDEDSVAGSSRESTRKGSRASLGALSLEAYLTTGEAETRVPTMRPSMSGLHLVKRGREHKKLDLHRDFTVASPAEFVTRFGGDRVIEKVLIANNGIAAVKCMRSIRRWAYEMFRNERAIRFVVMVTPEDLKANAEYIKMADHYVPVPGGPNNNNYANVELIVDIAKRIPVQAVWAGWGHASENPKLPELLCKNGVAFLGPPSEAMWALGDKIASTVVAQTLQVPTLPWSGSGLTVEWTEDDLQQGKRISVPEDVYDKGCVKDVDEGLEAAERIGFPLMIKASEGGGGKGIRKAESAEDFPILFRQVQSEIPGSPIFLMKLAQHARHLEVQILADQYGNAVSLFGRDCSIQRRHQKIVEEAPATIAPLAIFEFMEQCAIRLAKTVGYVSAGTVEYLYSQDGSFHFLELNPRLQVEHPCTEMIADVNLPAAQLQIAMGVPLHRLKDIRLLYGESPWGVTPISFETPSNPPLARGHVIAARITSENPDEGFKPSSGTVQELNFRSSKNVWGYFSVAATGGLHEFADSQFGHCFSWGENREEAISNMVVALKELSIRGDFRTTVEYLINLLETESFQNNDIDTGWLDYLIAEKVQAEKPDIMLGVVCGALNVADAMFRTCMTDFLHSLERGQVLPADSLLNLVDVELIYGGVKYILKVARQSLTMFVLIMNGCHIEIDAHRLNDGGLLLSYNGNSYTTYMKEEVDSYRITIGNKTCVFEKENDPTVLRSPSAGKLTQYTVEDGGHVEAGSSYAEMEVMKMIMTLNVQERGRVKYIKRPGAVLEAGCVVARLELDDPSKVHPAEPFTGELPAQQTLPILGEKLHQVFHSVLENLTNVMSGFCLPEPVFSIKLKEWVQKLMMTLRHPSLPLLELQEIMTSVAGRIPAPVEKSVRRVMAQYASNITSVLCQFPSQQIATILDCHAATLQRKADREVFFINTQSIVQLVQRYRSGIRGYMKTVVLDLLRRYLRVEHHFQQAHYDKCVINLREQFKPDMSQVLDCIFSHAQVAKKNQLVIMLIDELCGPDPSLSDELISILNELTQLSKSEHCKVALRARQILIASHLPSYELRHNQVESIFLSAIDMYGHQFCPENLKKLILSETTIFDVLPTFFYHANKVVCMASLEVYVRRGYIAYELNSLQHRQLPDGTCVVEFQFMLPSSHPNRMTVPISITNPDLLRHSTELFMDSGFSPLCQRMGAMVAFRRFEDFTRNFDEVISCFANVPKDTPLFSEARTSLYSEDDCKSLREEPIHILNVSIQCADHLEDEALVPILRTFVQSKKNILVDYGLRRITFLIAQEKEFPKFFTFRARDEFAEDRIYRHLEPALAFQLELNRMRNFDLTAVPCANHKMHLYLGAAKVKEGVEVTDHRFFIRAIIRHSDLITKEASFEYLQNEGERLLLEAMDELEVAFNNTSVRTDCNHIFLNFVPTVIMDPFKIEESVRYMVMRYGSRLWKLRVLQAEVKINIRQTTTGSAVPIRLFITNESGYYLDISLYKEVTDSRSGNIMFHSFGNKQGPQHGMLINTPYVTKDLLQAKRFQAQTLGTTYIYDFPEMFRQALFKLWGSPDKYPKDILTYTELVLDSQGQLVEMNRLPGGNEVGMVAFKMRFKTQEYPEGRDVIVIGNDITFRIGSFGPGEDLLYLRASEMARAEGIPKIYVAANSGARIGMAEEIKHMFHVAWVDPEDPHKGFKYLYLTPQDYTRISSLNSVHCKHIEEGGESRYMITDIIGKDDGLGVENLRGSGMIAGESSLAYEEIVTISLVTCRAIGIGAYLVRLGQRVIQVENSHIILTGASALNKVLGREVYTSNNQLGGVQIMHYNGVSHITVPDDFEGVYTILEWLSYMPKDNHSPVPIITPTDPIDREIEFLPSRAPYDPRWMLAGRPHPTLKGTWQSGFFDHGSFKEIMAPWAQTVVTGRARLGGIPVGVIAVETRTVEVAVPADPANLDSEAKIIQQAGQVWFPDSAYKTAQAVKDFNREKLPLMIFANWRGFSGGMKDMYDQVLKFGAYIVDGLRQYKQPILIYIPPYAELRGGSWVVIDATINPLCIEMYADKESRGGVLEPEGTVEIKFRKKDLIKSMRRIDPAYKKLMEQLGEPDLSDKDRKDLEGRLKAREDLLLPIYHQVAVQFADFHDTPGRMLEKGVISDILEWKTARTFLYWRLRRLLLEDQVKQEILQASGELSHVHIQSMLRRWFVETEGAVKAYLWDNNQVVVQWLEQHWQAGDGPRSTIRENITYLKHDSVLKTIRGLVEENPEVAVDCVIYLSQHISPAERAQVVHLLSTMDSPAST

In test [1], `CC(=O)NCC#Cc1cnc(Oc2ccc(OC(C)C)cc2)s1` gave an IC50 of 1860 nM.
Turning to `CC(C#Cc1cnc(Oc2ccc(OC(C)C)cc2)s1)NC(=O)C1CCOC1` (stereo not drawn), the IC50 is 220 nM in test [1] and more than 30000 nM in test [2].
Turning to `Cc1cc(NC(C)C#Cc2cnc(Oc3ccc(Oc4ccccc4)cc3)s2)on1` (stereo not drawn), the figures for the IC50 in test [1] and in test [2] were 57 nM and more than 30000 nM, respectively.
On to `CC(C#Cc1cnc(Oc2ccc(OC(C)C)cc2)s1)NC(=O)NCC(N)=O` (stereo not drawn), for which the IC50 in test [1] is 920 nM; in test [2], more than 30000 nM.
On to `COC(=O)C(=O)NC(C)C#Cc1cnc(Oc2ccc(OC(C)C)cc2)s1` (stereo not drawn), for which the IC50 in test [1] was 850 nM; in test [2], more than 30000 nM.
On to `CCn1ccc(NC(C)C#Cc2cnc(Oc3ccc(Oc4ccccc4)cc3)s2)n1` (stereo not drawn), for which the IC50 is 440 nM in test [1] and more than 30000 nM in test [2].
For `CC(=O)NC(C)(C)C#Cc1cnc(Oc2ccc(OC(C)C)cc2)s1`, the IC50 in test [1] was 500 nM; in test [2], more than 30000 nM.
`CC(C#Cc1cnc(Oc2ccc(OC(C)C)cc2)s1)NC(=O)C(=O)O` (stereo not drawn): the IC50 in test [1] and in test [2] was more than 30000 nM throughout.
As to `Cc1cc(NC(C)C#Cc2cnc(Oc3ccc(Oc4ccccc4)cc3)s2)no1` (stereo not drawn), the values for the IC50 in test [1] and in test [2] were 83 nM and more than 30000 nM, respectively.
Take `CC(C#Cc1cnc(Oc2ccc(Oc3ccccc3)cc2)s1)Nc1ncc[nH]1` (stereo not drawn): the IC50 was 3980 nM in test [1] and more than 30000 nM in test [2].
The matching figures for `CC(=O)NC(C#Cc1cnc(Oc2ccc(OC(C)C)cc2)s1)c1ccccc1` (stereo not drawn): more than 30000 nM and more than 30000 nM.
As to `Cc1noc(NC(C)C#Cc2cnc(Oc3ccc(Oc4ccccc4)cc3)s2)c1C` (stereo not drawn), the IC50 was 38 nM in test [1] and more than 30000 nM in test [2].
Take `CC(C#Cc1cnc(Oc2ccc(Oc3ccccc3)cc2)s1)Nc1nccs1` (stereo not drawn): the half-maximal inhibitory concentration (IC50) in test [1] stood at 690 nM; in test [2], 10700 nM.
As to `CC(=O)NC(C#Cc1cnc(Oc2ccc(OC(C)C)cc2)s1)C1CC1` (stereo not drawn), the IC50 in test [1] amounted to 880 nM.
`CC(C#Cc1cnc(Oc2ccc(OC(C)C)cc2)s1)NC(=O)NO` (stereo not drawn): the IC50 in test [1] is 330 nM; in test [2], more than 30000 nM.
As for `CC(C#Cc1cnc(Oc2ccc(OC(C)C)cc2)s1)NC(=O)ON` (stereo not drawn), the IC50 is 680 nM in test [1] and more than 30000 nM in test [2].
Molecule `CC(C#Cc1cnc(Oc2ccc(Oc3ccccc3)cc2)s1)N(O)C(N)=O` (stereo not drawn) registered an IC50 in test [1] of 75 nM. The Ratio IC50 in test [3] was more than 1000.
As to `CC(C#Cc1cnc(Oc2ccc(OC(C)C)cc2)s1)NC(=O)N(C)C` (stereo not drawn), the half-maximal inhibitory concentration (IC50) in test [1] was 71 nM; in test [2], more than 30000 nM.
The matching figures for `CCC(C#Cc1cnc(Oc2ccc(OC(C)C)cc2)s1)NC(C)=O` (stereo not drawn): 530 nM and more than 30000 nM.
The matching figures for `CC(C#Cc1cnc(Oc2ccc(Oc3ccccc3)cc2)s1)Nc1ccon1` (stereo not drawn): 42 nM and 5020 nM.
The matching figures for `CC(C#Cc1cnc(Oc2ccc(Oc3ccccc3)cc2)s1)Nc1nc2ccccc2s1` (stereo not drawn): more than 30000 nM and more than 30000 nM.
For the molecule `CC(=O)NC(C#Cc1cnc(Oc2ccc(OC(C)C)cc2)s1)CO` (stereo not drawn), the IC50 in test [1] was 910 nM; in test [2], more than 30000 nM.
With `CC(C#Cc1cnc(Oc2ccc(OC(C)C)cc2)s1)NC(=O)N1CCOCC1` (stereo not drawn), the IC50 in test [1] was 670 nM; in test [2], more than 30000 nM.
With `CC(C#Cc1cnc(Oc2ccc(OC(C)C)cc2)s1)NC(=O)C1CCCC1` (stereo not drawn), the IC50 in test [1] was 570 nM; in test [2] it was more than 30000 nM.
Regarding `CC(C)CONC(=O)NC(C)C#Cc1cnc(Oc2ccc(OC(C)C)cc2)s1` (stereo not drawn), the results for the IC50 in test [1] and in test [2] were 20500 nM and more than 30000 nM, respectively.
On to `CNC(=O)NC(C)C#Cc1cnc(Oc2ccc(OC(C)C)cc2)s1` (stereo not drawn), for which, in test [1], the IC50 worked out at 32 nM.
`CC(C#Cc1cnc(Oc2ccc(OC(C)C)cc2)s1)NC(=O)[C@@H]1CCCN1` (stereo partly drawn): the IC50 in test [1] and in test [2] was more than 30000 nM throughout.
With `CC(C#Cc1cnc(Oc2ccc(OC(C)C)cc2)s1)NC(N)=O` (stereo not drawn), the IC50 is 37 nM in test [1] and more than 30000 nM in test [2].
